Assay results from ChEMBL document CHEMBL1201862, “PubChem BioAssay data set” (2004).
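1) Cells in 96-well plates. 2) Compound, 48 h, 5 concentrations. 3) Linear interpolation between surrounding doses. 4) Unreached endpoint = highest concentration. GI50: concentration for 50% inhibition of growth.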 Activity calls are given as the source filed them. No stated cut-off is given here; in the data, active = GI50 up to about 1.1 µM and inactive = higher.

Columns and labels:
Assay in all cases: NCI anticancer screen, dose series, 48 h
COLO 205 = tested on: COLO 205
HCT-116 = tested on: HCT-116
HCT-15 = tested on: HCT-15
HOP-62 = tested on: HOP-62
HT-29 = tested on: HT-29
LOX IMVI = tested on: LOX IMVI
MOLT-4 = tested on: MOLT-4
Malme-3M = tested on: Malme-3M
NCI-H226 = tested on: NCI-H226
NCI-H23 = tested on: NCI-H23
RPMI-8226 = tested on: RPMI-8226
SK-MEL-2 = tested on: SK-MEL-2
SN12C = tested on: SN12C
TK-10 = tested on: TK-10
U-251 = tested on: U-251
UACC-62 = tested on: UACC-62
CAKI-1 = tested on: CAKI-1
DU-145 = tested on: DU-145
IGROV-1 = tested on: IGROV-1

| Compound | GI50 (COLO 205) | GI50 (HCT-116) | GI50 (HCT-15) [µM] | GI50 (HOP-62) | GI50 (HT-29) | GI50 (LOX IMVI) | GI50 (MOLT-4) | GI50 (Malme-3M) | GI50 (NCI-H226) | GI50 (NCI-H23) | GI50 (RPMI-8226) | GI50 (SK-MEL-2) | GI50 (SN12C) | GI50 (TK-10) | GI50 (U-251) | GI50 (UACC-62) | GI50 (CAKI-1) | GI50 (DU-145) | GI50 (IGROV-1) |
| --- | --- | --- | --- | --- | --- | --- | --- | --- | --- | --- | --- | --- | --- | --- | --- | --- | --- | --- | --- |
| Cc1ccc(NC(=O)CSc2nnc(Cc3ccccc3)o2)c(C)c1 | > 100 µM (inactive) | > 100 µM (inactive) | > 100 | > 100 µM (inactive) | > 100 µM (inactive) | > 100 µM (inactive) | > 100 µM (inactive) | > 100 µM (inactive) | > 100 µM (inactive) | > 100 µM (inactive) | > 100 µM (inactive) | > 100 µM (inactive) | > 100 µM (inactive) | > 100 µM (inactive) | > 100 µM (inactive) | > 100 µM (inactive) | – | – | – |
| CSC(=NC1=NC(C(F)(F)F)(C(F)(F)F)N=C(c2ccccc2)O1)SC | 14.6 µM (inactive) | 4.01 µM (inactive) | 4.88 | 9.1 µM (inactive) | 16.4 µM (inactive) | 5.75 µM (inactive) | 6.07 µM (inactive) | 16.3 µM (inactive) | 26.9 µM (inactive) | 7.31 µM (inactive) | – | 16 µM (inactive) | 17.1 µM (inactive) | 7.93 µM (inactive) | 4.12 µM (inactive) | 20 µM (inactive) | 4.49 µM (inactive) | 6.9 µM (inactive) | – |
| CC(=O)/C(=C/NC(=S)N/N=C1\C(=O)Nc2ccccc21)C(=O)Nc1ccccc1C | > 100 µM (inactive) | 95.3 µM (inactive) | > 100 | > 100 µM (inactive) | > 100 µM (inactive) | 63.8 µM (inactive) | > 100 µM (inactive) | – | > 100 µM (inactive) | > 100 µM (inactive) | – | > 100 µM (inactive) | > 100 µM (inactive) | > 100 µM (inactive) | > 100 µM (inactive) | > 100 µM (inactive) | 47.4 µM (inactive) | 47.1 µM (inactive) | 95.3 µM (inactive) |
| CCOc1ncn(-c2ccc(NC(=S)Nc3cnccn3)cc2)n1 | – | – | > 10 | – | > 10 µM (inactive) | – | > 10 µM (inactive) | > 10 µM (inactive) | > 10 µM (inactive) | > 10 µM (inactive) | – | > 10 µM (inactive) | > 10 µM (inactive) | > 10 µM (inactive) | > 10 µM (inactive) | > 10 µM (inactive) | – | > 10 µM (inactive) | > 10 µM (inactive) |
| COC(=O)C1C(O)C(C(=O)OC)C(C)N(C)C1C (stereo unspecified) | > 100 µM (inactive) | > 100 µM (inactive) | > 100 | > 100 µM (inactive) | > 100 µM (inactive) | > 100 µM (inactive) | > 100 µM (inactive) | – | > 100 µM (inactive) | > 100 µM (inactive) | > 100 µM (inactive) | > 100 µM (inactive) | > 100 µM (inactive) | > 100 µM (inactive) | > 100 µM (inactive) | > 100 µM (inactive) | > 100 µM (inactive) | – | > 100 µM (inactive) |
| COC(=O)CC[N+]1=CCC(c2ccccc2)(c2ccccc2)O1 | > 100 µM (inactive) | > 100 µM (inactive) | > 100 | > 100 µM (inactive) | > 100 µM (inactive) | – | > 100 µM (inactive) | – | > 100 µM (inactive) | > 100 µM (inactive) | – | > 100 µM (inactive) | > 100 µM (inactive) | > 100 µM (inactive) | > 100 µM (inactive) | > 100 µM (inactive) | > 100 µM (inactive) | > 100 µM (inactive) | > 100 µM (inactive) |
| COP(=O)(/C=C/c1cc(C(=O)OCc2ccccc2)n(S(=O)(=O)c2ccccc2)c1)OC | > 100 µM (inactive) | > 100 µM (inactive) | > 100 | > 100 µM (inactive) | > 100 µM (inactive) | > 100 µM (inactive) | > 100 µM (inactive) | > 100 µM (inactive) | – | > 100 µM (inactive) | – | > 100 µM (inactive) | > 100 µM (inactive) | > 100 µM (inactive) | > 100 µM (inactive) | > 100 µM (inactive) | > 100 µM (inactive) | > 100 µM (inactive) | > 100 µM (inactive) |
| CCOC(=O)Nc1cc2c(c(N)n1)N=C(c1ccc3ccccc3c1)CN2 | 0.499 µM (active) | 0.0225 µM (active) | 0.0189 | 0.0564 µM (active) | 0.301 µM (active) | 0.0559 µM (active) | 0.0226 µM (active) | 0.292 µM (active) | 0.34 µM (active) | 0.325 µM (active) | – | 0.373 µM (active) | 0.0711 µM (active) | 4.36 µM (inactive) | 0.0339 µM (active) | 0.0328 µM (active) | 1.25 µM (inactive) | 0.101 µM (active) | 0.644 µM (active) |
| N/N=C(\C(=O)Nc1ccc(Cl)cc1Cl)C(c1cnc2ccccc2n1)[N+](=O)[O-] (stereo unspecified) | – | 26.7 µM (inactive) | > 100 | > 100 µM (inactive) | > 100 µM (inactive) | > 100 µM (inactive) | – | > 100 µM (inactive) | > 100 µM (inactive) | > 100 µM (inactive) | > 100 µM (inactive) | > 100 µM (inactive) | > 100 µM (inactive) | > 100 µM (inactive) | > 100 µM (inactive) | > 100 µM (inactive) | > 100 µM (inactive) | – | 8.47 µM (inactive) |
| CCOC(=O)C1=c2[nH]c3cccc4cccc(c43)n2C(=O)CC1 | 43.8 µM (inactive) | 45.6 µM (inactive) | 39.3 | > 100 µM (inactive) | – | 25.4 µM (inactive) | > 100 µM (inactive) | – | – | > 100 µM (inactive) | > 100 µM (inactive) | > 100 µM (inactive) | > 100 µM (inactive) | > 100 µM (inactive) | > 100 µM (inactive) | > 100 µM (inactive) | > 100 µM (inactive) | 51.6 µM (inactive) | 49.4 µM (inactive) |
| O=C(O)c1ccc(Nc2nc3cc(C(F)(F)F)ccc3nc2C(=O)O)cc1 | > 100 µM (inactive) | > 100 µM (inactive) | > 100 | > 100 µM (inactive) | > 100 µM (inactive) | > 100 µM (inactive) | > 100 µM (inactive) | > 100 µM (inactive) | > 100 µM (inactive) | > 100 µM (inactive) | – | > 100 µM (inactive) | > 100 µM (inactive) | – | > 100 µM (inactive) | – | > 100 µM (inactive) | > 100 µM (inactive) | > 100 µM (inactive) |
| O/N=N\c1nc(-c2cccnc2)nc2ccccc12 | 75.5 µM (inactive) | > 100 µM (inactive) | 96.8 | > 100 µM (inactive) | 47.8 µM (inactive) | – | > 100 µM (inactive) | – | > 100 µM (inactive) | > 100 µM (inactive) | – | – | > 100 µM (inactive) | > 100 µM (inactive) | > 100 µM (inactive) | > 100 µM (inactive) | > 100 µM (inactive) | > 100 µM (inactive) | > 100 µM (inactive) |
| CC(C)C(C/C=C1/CC(CO)(COC(=O)c2ccccc2)OC1=O)C(C)C (stereo unspecified) | 3.63 µM (inactive) | 16 µM (inactive) | 20 | 9.93 µM (inactive) | 18.7 µM (inactive) | 23.8 µM (inactive) | 11.8 µM (inactive) | 12 µM (inactive) | 16 µM (inactive) | 18.1 µM (inactive) | – | > 100 µM (inactive) | 15.5 µM (inactive) | 16.5 µM (inactive) | 16.1 µM (inactive) | 23.9 µM (inactive) | 14.6 µM (inactive) | – | 20.2 µM (inactive) |
